Reference: patent US10272056B2, “Treatment for mitochondrial diseases” (The George Washington University a Congressionally …, priority 2015, dated 2019)

How the values were obtained:
Format in all cases: cell-based
PC12-ND6 cells [1] = experiment: Neurite outgrowth with dbcAMP
Procedure: FIG. 13A-13E are images from microscopy and graphs showing that the timing of NaBt treatment is critical for enhancing neuronal differentiation of PC12-ND6 cells upon sub-optimal neurotrophic cues. (A) Confocal micrographs of PC12-ND6 cells treated with dbcAMP alone or with NaBt (5 mM) in a simultaneous or sequential manner. Scale bar represents 5 μm. (B) Graph of neurite length. Mean±SEM (n=50 for each condition; compared to control (no NaBt) *p=0.0001 and **p=0.0009). (C) Confocal micrographs of PC12-ND6 cells treated with sub-optimal NGF concentration (10 ng/ml) alone or first NaBt (5 mM) in a simultaneous or sequential manner. Scale bar represents 10 μm. (D) Graph of average total neurite length. Mean±SEM (n=50 for each condition; compared to control *p=0.0001). (E) Graph of the frequency of total neurite length below and above 90 μm.
The timing of NaBt pre-treatment is critical for enhancing neuronal differentiation of PC12-ND6 cells and potentiating sub-optimal neurotrophic cues. We next investigated whether NaBt-mediated increase of mitochondrial biogenesis could potentiate subsequent sub-optimal neurotrophic cues to trigger effective neurite outgrowth in PC12-ND6 cells and whether a temporal window for NaBt responsiveness might exist. […]

[2] = test system: E17.5 hippocampal neurons; experiment: Cellular viability of neurons exposed to NaBt; details: 2 mM NaBt
PC12-ND6 cells [3] = experiment: Mitochondrial mass (mito-GFP live cell microscopy, MTG/MTR flow cytometry)
Procedure: PC12-ND6 cells were transfected with the mito-GFP vector prior to treatment with NaBt (5 mM) for the indicated time points. Mitochondria were visualized by live cell microscopy; scale bar=5 μm.
FIG. 7A-7F show images from microscopy and graphs showing NaBt increases mitochondrial mass. (A) Live cell confocal microscopy of E17.5 hippocampal neurons; high magnification in inset; scale bar=5 (B) Quantitative analysis of the mitochondrial biomass in E17.5 neurons using an anti-CoxVα antibody; *p<0.001. (C) Live cell confocal microscopy of PC12-ND6 cells; high magnification in inset; scale bar=5 (D) Flow cytometric analysis of mitochondrial mass; *p<0.001. (E) Confocal microscopy of E17.5 brains from E12.5 pregnant dams treated with PBS (sham) or NaBt; scale bar=20 (F) Quantitative analysis of mitochondrial mass; *p<0.001.
Experimental approaches. Five distinct molecular tools were used to investigate mitochondrial biogenesis: 1) the mitochondrial-specific dyes, MitoTracker® Green (MTG) and MitoTracker® Red (MTR); 2) the mito-GFP or mito-dsRed vector to fluorescently label mitochondria; 3) antibodies against mtDNA, COXVα, or SOD2; 4) the fluorescent PicoGreen® dye labeling mtDNA; and 5) quantitative PCR to determine mtDNA copy number.
NaBt increases the mitochondrial biomass of neuronal cells in vitro and in vivo. To investigate the effect of NaBt on mitochondrial mass, PC12-ND6 cells were transfected with the mito-GFP vector before performing a time course analysis of NaBt (5 mM) treatment.
The effect of NaBt was investigated in embryonic neuronal progenitor cells, E17.5 hippocampal neurons, which were transfected with the mito-GFP vector and then exposed to various concentrations of NaBt. […] Therefore, all subsequent treatment of E17.5 hippocampal neurons with NaBt was performed in the presence of 2 mM. […] Flow cytometric analysis using MTG- or MTR-labeled cells corroborated the NaBt-mediated increase in mitochondrial mass (FIG. 7D).

[4] = test system: E17.5 hippocampal neurons; experiment: NaBt dose-dependent acetylation of nuclear proteins in neurons; details: E17.5 hippocampal neurons at 1DIV
Source text: FIG. 4A-4E are images from microscopy and graphs showing NaBt dose-dependent acetylation and cellular toxicity in PC12-ND6 cells and embryonic E17.5 hippocampal neurons. (A) Confocal micrographs of PC12-ND6 cells (referred to as ND6) grown in the absence or presence of NaBt for three days and labeled with an anti-acetylated Lys antibody (AcLys; green). Scale bar represents 10 μm. […] Results are expressed as relative fluorescence intensity±S.D. (n=250 cells per NaBt concentration; * p=0.0001). (C) Effect of NaBt on PC12-ND6 cell viability. […] Mean±SEM (n=250 cells for each experimental condition; * p=0.0001). (D) Confocal micrographs of NaBt dose-dependent acetylation in E17.5 hippocampal neurons (AcLys; green). Scale bar represents 10 μm.
Sodium butyrate increases protein acetylation in a dose-dependent manner without inducing cellular toxicity. A dose response analysis was performed to determine the optimal concentration of sodium butyrate (NaBt) for inducing maximal acetylation levels with minimal cellular toxicity. PC12-ND6 cells were treated with different concentrations of NaBt (2 mM, 5 mM, and 10 mM) for three days before assessing the degree of acetylated lysine residues by immunocytochemistry and cell viability by live-cell confocal microscopy using the Nuclear-ID™ stain.

PC12-ND6 cells [5] = experiment: NGF (100 ng/ml)-mediated neurite outgrowth after chloramphenicol
Source text: FIG. 15A-15C are images from microscopy and a graph showing that Pre-treatment of PC12-ND6 cells negates the inhibitory effect of chloramphenicol on NGF-mediated neuronal differentiation. (A) Confocal micrographs of untreated and Cm-treated PC12-ND6 cells transfected with the vector mito-GFP and exposed to NGF. Scale bar represents 20 μm. (B) Confocal micrographs of NaBt pre-treated PC12-ND6 cells transfected with the vector mito-GFP and exposed to chloramphenicol prior to NGF treatment. Scale bar represents 20 μm. (C) Graph of average total neurite length. Mean±SEM (n=50 cells; compared to untreated PC12-ND6 cells *p=0.0001; compared to non-NaBt-treated PC12-ND6 cells with corresponding Cm concentration **p=0.0001).
Based on the results that NaBt endows PC12-ND6 cells with increased mitochondrial mass through biogenesis, resulting in accelerated neuronal differentiation, it was examined whether exposure to NaBt for three days could confer protection to chloramphenicol-mediated inhibition of neuronal differentiation upon NGF signaling.

[6] = flow cytometry, NaBt-treated vs control

CCCC(=O)[O-].[Na+] [NaBt, sodium butyrate]
neuritogenesis upon co-addition (PC12-ND6 cells [1]; NaBt 5 mM and dbcAMP 1 mM added together): severely dampened | neurite length (PC12-ND6 cells [1]; NaBt pre-treatment three days at highest dose, then dbcAMP 1 mM 24 hours): 50 μm | cellular viability [2]: without affecting cellular viability | time of maximal increase of the mitochondrial biomass (PC12-ND6 cells [3]; NaBt 5 mM, mito-GFP time course): after three days | increase in fluorescence intensity, MTR staining (PC12-ND6 cells [3]; [6]): 3.5 fold | increase in mitochondrial mass, MTG staining (PC12-ND6 cells [3]; [6]): two-fold | NaBt concentration resulting in near maximal acetylation levels of nuclear proteins [4]: 2 mM | mitochondrial density in processes (PC12-ND6 cells [5]; NaBt pre-treated, 60 μM chloramphenicol): retained a high mitochondrial density | total neurite length with NaBt pre-treatment (PC12-ND6 cells [5]; NaBt three days, highest concentration of chloramphenicol, NGF): remained unaffected
